In the NIST ThermoML archive (doi:10.1016/j.fluid.2015.04.017):

Experiment: xn = mol fraction of the nth substance listed
Conditions: 101 kPa, Liquid; for viscosity: Concentric cylinders viscometry; for mass density: Vibrating tube method

CCOC(=O)C(C)O (stereo not drawn) [DL-ethyl lactate] + CCC(C)=O
Conditions | mass density [kg/m3] | viscosity [mPa·s]
288.15 K, x1 = 0.0999 | 840.096 | 0.5127
288.15 K, x1 = 0.1999 | 868.347 | 0.6157
288.15 K, x1 = 0.3001 | 894.852 | 0.7578
288.15 K, x1 = 0.4001 | 919.605 | 0.9204
288.15 K, x1 = 0.5 | 942.723 | 1.128
288.15 K, x1 = 0.5998 | 964.577 | 1.384
288.15 K, x1 = 0.6999 | 985.434 | 1.707
288.15 K, x1 = 0.8 | 1005.13 | 2.113
288.15 K, x1 = 0.9001 | 1023.3 | 2.63
288.15 K, x1 = 1 | 1039.28 | 3.207
293.15 K, x1 = 0.0999 | 834.849 | 0.4886
293.15 K, x1 = 0.1999 | 863.068 | 0.5824
293.15 K, x1 = 0.3001 | 889.537 | 0.7086
293.15 K, x1 = 0.4001 | 914.27 | 0.8532
293.15 K, x1 = 0.5 | 937.369 | 1.035
293.15 K, x1 = 0.5998 | 959.204 | 1.254
293.15 K, x1 = 0.6999 | 980.043 | 1.527
293.15 K, x1 = 0.8 | 999.721 | 1.862
293.15 K, x1 = 0.9001 | 1017.88 | 2.287
293.15 K, x1 = 1 | 1033.84 | 2.752
298.15 K, x1 = 0.0999 | 829.575 | 0.4651
298.15 K, x1 = 0.1999 | 857.764 | 0.5514
298.15 K, x1 = 0.3001 | 884.198 | 0.6643
298.15 K, x1 = 0.4001 | 908.905 | 0.7937
298.15 K, x1 = 0.5 | 931.98 | 0.9526
298.15 K, x1 = 0.5998 | 953.795 | 1.141
298.15 K, x1 = 0.6999 | 974.621 | 1.375
298.15 K, x1 = 0.8 | 994.289 | 1.658
298.15 K, x1 = 0.9001 | 1012.45 | 2.007
298.15 K, x1 = 1 | 1028.39 | 2.39
303.15 K, x1 = 0.0999 | 824.277 | 0.4429
303.15 K, x1 = 0.1999 | 852.434 | 0.5214
303.15 K, x1 = 0.3001 | 878.836 | 0.6229
303.15 K, x1 = 0.4001 | 903.522 | 0.7397
303.15 K, x1 = 0.5 | 926.577 | 0.8816
303.15 K, x1 = 0.5998 | 948.373 | 1.046
303.15 K, x1 = 0.6999 | 969.181 | 1.248
303.15 K, x1 = 0.8 | 988.835 | 1.489
303.15 K, x1 = 0.9001 | 1006.99 | 1.783
303.15 K, x1 = 1 | 1022.92 | 2.097
308.15 K, x1 = 0.0999 | 818.947 | 0.4211
308.15 K, x1 = 0.1999 | 847.072 | 0.4939
308.15 K, x1 = 0.3001 | 873.449 | 0.5848
308.15 K, x1 = 0.4001 | 898.112 | 0.6909
308.15 K, x1 = 0.5 | 921.146 | 0.8175
308.15 K, x1 = 0.5998 | 942.923 | 0.9624
308.15 K, x1 = 0.6999 | 963.714 | 1.138
308.15 K, x1 = 0.8 | 983.356 | 1.345
308.15 K, x1 = 0.9001 | 1001.5 | 1.595
308.15 K, x1 = 1 | 1017.42 | 1.858
313.15 K, x1 = 0.0999 | 813.582 | 0.4001
313.15 K, x1 = 0.1999 | 841.677 | 0.4671
313.15 K, x1 = 0.3001 | 868.027 | 0.5492
313.15 K, x1 = 0.4001 | 892.67 | 0.6463
313.15 K, x1 = 0.5 | 915.688 | 0.7602
313.15 K, x1 = 0.5998 | 937.45 | 0.8883
313.15 K, x1 = 0.6999 | 958.226 | 1.042
313.15 K, x1 = 0.8 | 977.854 | 1.222
313.15 K, x1 = 0.9001 | 995.984 | 1.436
313.15 K, x1 = 1 | 1011.9 | 1.658
318.15 K, x1 = 0.0999 | 808.184 | 0.3798
318.15 K, x1 = 0.1999 | 836.25 | 0.4415
318.15 K, x1 = 0.3001 | 862.576 | 0.5165
318.15 K, x1 = 0.4001 | 887.197 | 0.6052
318.15 K, x1 = 0.5 | 910.198 | 0.709
318.15 K, x1 = 0.5998 | 931.944 | 0.8229
318.15 K, x1 = 0.6999 | 952.707 | 0.9589
318.15 K, x1 = 0.8 | 972.323 | 1.116
318.15 K, x1 = 0.9001 | 990.445 | 1.3
318.15 K, x1 = 1 | 1006.36 | 1.491
323.15 K, x1 = 0.0999 | 802.753 | 0.3598
323.15 K, x1 = 0.1999 | 830.788 | 0.4212
323.15 K, x1 = 0.3001 | 857.09 | 0.4897
323.15 K, x1 = 0.4001 | 881.694 | 0.5699
323.15 K, x1 = 0.5 | 904.683 | 0.6649
323.15 K, x1 = 0.5998 | 926.419 | 0.7673
323.15 K, x1 = 0.6999 | 947.168 | 0.8872
323.15 K, x1 = 0.8 | 966.77 | 1.028
323.15 K, x1 = 0.9001 | 984.879 | 1.193
323.15 K, x1 = 1 | 1000.79 | 1.349
